Test results: the NIST ThermoML archive (doi:10.1021/je050159x)

Assays:
[1] = for mass density: 101.33 kPa, Liquid
[2] = xn = mol fraction of the nth substance listed

OCc1ccccc1 [benzenemethanol]
[1]
Conditions | mass density [kg/m3] | surface tension liquid-gas [mN/m]
293.15 K | 1045.2 | 39.05
298.15 K | 1041.4 | 38.58
303.15 K | – | 38.12
308.15 K | – | 37.63
313.15 K | 1029.8 | 37.16
318.15 K | – | 36.63
323.15 K | – | 36.18

OCc1ccccc1 [benzenemethanol] + C1CCCCC1
surface tension liquid-gas [mN/m], [2]
Conditions | x2 = 0 | x2 = 0.0068 | x2 = 0.0079 | x2 = 0.0107 | x2 = 0.0202 | x2 = 0.0312 | x2 = 0.0409 | x2 = 0.0655
293.15 K | 39.05 | 37.88 | 37.73 | 37.48 | 37.07 | 36.53 | 35.88 | 34.14
298.15 K | 38.58 | 37.43 | 37.39 | 37.15 | 36.68 | 36.25 | 35.66 | 34.04
303.15 K | 38.12 | 37.06 | 36.93 | 36.74 | 36.32 | 35.98 | 35.41 | 33.94
308.15 K | 37.63 | 36.66 | 36.54 | 36.38 | 35.92 | 35.73 | 35.22 | 33.82
313.15 K | 37.16 | 36.29 | 36.12 | 35.99 | 35.58 | 35.47 | 34.96 | 33.72
318.15 K | 36.63 | 35.84 | 35.74 | 35.66 | 35.24 | 35.22 | 34.77 | 33.61
323.15 K | 36.18 | 35.5 | 35.32 | 35.25 | 34.86 | 34.96 | 34.53 | 33.5

OCc1ccccc1 [benzenemethanol] + CCCCCC
surface tension liquid-gas [mN/m], [2]
Conditions | x2 = 0 | x2 = 0.0068 | x2 = 0.0085 | x2 = 0.0198 | x2 = 0.0215 | x2 = 0.0264 | x2 = 0.0493 | x2 = 0.07
293.15 K | 39.05 | 37.39 | 37.24 | 34.45 | 33.73 | 33.22 | 30.61 | 27.46
298.15 K | 38.58 | 37.1 | 36.85 | 34.74 | 34.04 | 33.56 | 31.06 | 27.96
303.15 K | 38.12 | 36.84 | 36.41 | 35.03 | 34.38 | 33.86 | 31.54 | 28.72
308.15 K | 37.63 | 36.53 | 36.01 | 35.35 | 34.69 | 34.25 | 31.92 | 29.29
313.15 K | 37.16 | 36.3 | 35.6 | 35.63 | 34.99 | 34.59 | 32.35 | 29.9

OCc1ccccc1 [benzenemethanol] + CCCCCCC
surface tension liquid-gas [mN/m], [2]
Conditions | x2 = 0 | x2 = 0.0065 | x2 = 0.009 | x2 = 0.0112 | x2 = 0.0238 | x2 = 0.0306 | x2 = 0.0445 | x2 = 0.067
293.15 K | 39.05 | 37.77 | 37.07 | – | 33.61 | 32.37 | 28.84 | 26.09
298.15 K | 38.58 | 37.47 | 36.87 | 34.69 | 33.83 | 32.58 | 29.16 | 26.47
303.15 K | 38.12 | 37.1 | 36.62 | 35.02 | 34.05 | 32.82 | 29.43 | 26.89
308.15 K | 37.63 | 36.78 | 36.41 | 35.28 | 34.27 | 33.04 | 29.68 | 27.27
313.15 K | 37.16 | 36.49 | 36.16 | 35.53 | 34.48 | 33.24 | 30 | 27.7
318.15 K | 36.63 | 36.18 | 35.95 | 35.83 | 34.7 | 33.46 | 30.3 | 28.08
323.15 K | 36.18 | 35.92 | 35.74 | 36.11 | 34.95 | 33.68 | 30.61 | 28.46

OCc1ccccc1 [benzenemethanol] + CCCCCCCCC
surface tension liquid-gas [mN/m], [2]
Conditions | x2 = 0 | x2 = 0.0061 | x2 = 0.008 | x2 = 0.0116 | x2 = 0.0204 | x2 = 0.0329 | x2 = 0.0408 | x2 = 0.0668
293.15 K | 39.05 | 36.83 | 36.33 | 35.34 | 32.52 | 30.44 | 28.73 | 26.66
298.15 K | 38.58 | 36.4 | 35.95 | 35.13 | 32.31 | 30.23 | 28.52 | 26.56
303.15 K | 38.12 | 35.85 | 35.52 | 34.59 | 32.02 | 30 | 28.22 | 26.38
308.15 K | 37.63 | 35.51 | 35.21 | 34.33 | 31.83 | 29.85 | 28.03 | 26.28
313.15 K | 37.16 | 35.03 | 34.84 | 33.98 | 31.61 | 29.62 | 27.82 | 26.19
318.15 K | 36.63 | 34.61 | 34.5 | 33.67 | 31.41 | 29.44 | 27.67 | 26.12
323.15 K | 36.18 | 34.25 | 34.16 | 33.32 | 31.22 | 29.25 | 27.46 | 26.02

C1CCCCC1 [cyclohexane]
[1]
Conditions | mass density [kg/m3] | surface tension liquid-gas [mN/m]
293.15 K | 778.6 | 25.06
298.15 K | 773.9 | 24.45
303.15 K | – | 23.87
308.15 K | – | 23.21
313.15 K | 759.6 | 22.71
318.15 K | – | 22.05
323.15 K | – | 21.45

C1CCCCC1 [cyclohexane] + OCc1ccccc1
[2], x1 = 1
Conditions | surface tension liquid-gas [mN/m]
293.15 K | 25.06
298.15 K | 24.45
303.15 K | 23.87
308.15 K | 23.21
313.15 K | 22.71
318.15 K | 22.05
323.15 K | 21.45

CCCCCCC [heptane]
[1]
Conditions | mass density [kg/m3] | surface tension liquid-gas [mN/m]
293.15 K | 696 | 20.05
298.15 K | 691.9 | 19.54
303.15 K | – | 19.1
308.15 K | – | 18.58
313.15 K | 680 | 18.08
318.15 K | – | 17.6
323.15 K | – | 17.06

CCCCCCC [heptane] + OCc1ccccc1
[2], x1 = 1
Conditions | surface tension liquid-gas [mN/m]
293.15 K | 20.05
298.15 K | 19.54
303.15 K | 19.1
308.15 K | 18.58
313.15 K | 18.08
318.15 K | 17.6
323.15 K | 17.06

CCCCCC [hexane]
[1]
Conditions | mass density [kg/m3] | surface tension liquid-gas [mN/m]
293.15 K | 660.2 | 18.56
298.15 K | 655.4 | 18.03
303.15 K | – | 17.44
308.15 K | – | 16.92
313.15 K | 641.4 | 16.38

CCCCCC [hexane] + OCc1ccccc1
[2], x1 = 1
Conditions | surface tension liquid-gas [mN/m]
293.15 K | 18.56
298.15 K | 18.03
303.15 K | 17.44
308.15 K | 16.92
313.15 K | 16.38

CCCCCCCCC [nonane]
[1]
Conditions | mass density [kg/m3] | surface tension liquid-gas [mN/m]
293.15 K | 717.7 | 23.04
298.15 K | 713.9 | 22.49
303.15 K | – | 22.04
308.15 K | – | 21.49
313.15 K | 694.2 | 20.94
318.15 K | – | 20.47
323.15 K | – | 19.98

CCCCCCCCC [nonane] + OCc1ccccc1
[2], x1 = 1
Conditions | surface tension liquid-gas [mN/m]
293.15 K | 23.04
298.15 K | 22.49
303.15 K | 22.04
308.15 K | 21.49
313.15 K | 20.94
318.15 K | 20.47
323.15 K | 19.98
